According to patent publication US10508085B2, “Compounds and methods for IDO and TDO modulation, and indications therefor” (Plexxikon Inc., priority 2016, dated 2019):

Tests used:
[1] = biological target: T1, Human Indoleamine 2,3-dioxygenase (IDO) (Homo sapiens, UniProt P14902); assay: Human IDO enzymatic assay (kynurenine level); type: biochemical; conditions: 6 nM IDO, 10 μM L-Trp; geometric mean; read-out: IDO1 GMean: IC50 (μM) (Biochemical Assay)
T1 construct: His tag (N); made in house; host or cells: E. coli
T1 sequence (P14902 whole entry): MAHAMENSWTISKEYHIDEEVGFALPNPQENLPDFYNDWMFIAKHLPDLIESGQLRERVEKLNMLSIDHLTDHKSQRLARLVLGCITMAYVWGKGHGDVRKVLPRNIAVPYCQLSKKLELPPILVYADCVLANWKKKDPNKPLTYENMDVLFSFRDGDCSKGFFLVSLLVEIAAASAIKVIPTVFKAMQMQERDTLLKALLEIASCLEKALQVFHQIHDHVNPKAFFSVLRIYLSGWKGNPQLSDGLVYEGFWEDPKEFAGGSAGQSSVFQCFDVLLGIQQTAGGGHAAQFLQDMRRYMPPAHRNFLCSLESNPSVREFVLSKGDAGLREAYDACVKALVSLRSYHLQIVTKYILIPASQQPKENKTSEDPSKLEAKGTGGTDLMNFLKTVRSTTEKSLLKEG
Protocol: (§1) Human Indoleamine 2,3-dioxygenase (IDO) and Tryptophan 2,3-dioxygenase (TDO) enzymatic assay
(§2) Human IDO or TDO with N-terminal His tag is purified in E. coli. The IDO enzymatic assay is performed using 6 nM IDO and 10 μM L-Trp in the presence of 10 mM ascorbic acid, 5 μM methylene blue, 100 nM catalase and 0.01% Tween 20 in 50 mM sodium phosphate buffer (pH 6.5). 19 μL of above reaction mixture is added to wells of 384 well reaction plate containing […] of various concentrations of test compound or DMSO vehicle and incubated for 20 minutes at room temperature. The TDO enzymatic reaction assay is performed using 1 nM TDO and 350 μM L-Trp in the presence of 10 mM ascorbic acid, 0.4 μM methylene blue, 100 nM catalase and 0.01% Tween 20 in 50 mM sodium phosphate buffer (pH 6.5). 19 μL of above reaction mixture is added to wells of 384 well reaction plate containing 1 μL of various concentrations of test compound or DMSO vehicle and incubated for 70 minutes at room temperature. 16 wells containing all the components of reaction mixture and 5% DMSO serve as high control. 16 well containing all the components except enzyme of reaction mixture and 5% DMSO serves as low control. Both IDO and TDO enzymatic reactions are stopped by addition of […] of 30% TCA and incubated 30 minutes at 50° C. to hydrolyze N-formylkynurenine produced by IDO or TDO to kynurenine. Upon measuring the kynurenine level, the percentage inhibition is calculated at individual concentrations relative to high and low controls. The data is analyzed by using nonlinear regression to generate IC50 values.

[2] = biological target: T2, Human Tryptophan 2,3-dioxygenase (TDO) (Homo sapiens, UniProt P48775); assay: Human TDO enzymatic assay (kynurenine level); type: biochemical; conditions: 1 nM TDO, 350 μM L-Trp; geometric mean; read-out: TDO GMean: IC50 (μM) (Biochemical Assay)
T2 construct: His tag (N); made in house; host or cells: E. coli
T2 sequence (P48775 whole entry): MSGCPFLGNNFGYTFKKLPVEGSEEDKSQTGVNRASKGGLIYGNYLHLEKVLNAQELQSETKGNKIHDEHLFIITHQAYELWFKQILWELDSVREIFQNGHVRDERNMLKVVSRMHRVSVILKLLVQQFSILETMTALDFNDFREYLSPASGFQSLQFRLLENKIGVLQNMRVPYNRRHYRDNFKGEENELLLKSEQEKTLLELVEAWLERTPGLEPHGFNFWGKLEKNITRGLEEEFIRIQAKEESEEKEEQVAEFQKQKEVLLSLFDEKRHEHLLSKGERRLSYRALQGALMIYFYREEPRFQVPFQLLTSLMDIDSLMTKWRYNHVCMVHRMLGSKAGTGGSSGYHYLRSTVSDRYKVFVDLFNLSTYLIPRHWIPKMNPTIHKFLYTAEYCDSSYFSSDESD
Protocol: as §1, §2

IC50 [1] | IC50 [2] | Compound
0.0001 to 10 µM | 0.0001 to 10 µM | OC(c1ccc(Cl)c2cn[nH]c12)C1CCCCC1 (centres unmarked) [Compound P-0003, (4-chloro-1H-indazol-7-yl)(cyclohexyl)methanol]
0.0001 to 10 µM | 10 to 100 µM | CCCOc1ccc(C(O)c2cccc3cncn23)cc1 (centres unmarked) [Compound P-0064, imidazo[1,5-a]pyridin-5-yl(4-propoxyphenyl)methanol]
0.0001 to 10 µM | 10 to 100 µM | OC(c1ccc(OC(F)(F)F)cc1)c1cccc2cncn12 (centres unmarked) [Compound P-0065, imidazo[1,5-a]pyridin-5-yl(4-(trifluoromethoxy)phenyl)methanol]
0.0001 to 10 µM | 0.0001 to 10 µM | OC(c1ccccc1F)c1cccc2cncn12 (centres unmarked) [Compound P-0066, (2-fluorophenyl)(imidazo[1,5-a]pyridin-5-yl)methanol]
100 to 200 µM | 0.0001 to 10 µM | OC(c1ccccc1C(F)(F)F)c1cccc2cncn12 (centres unmarked) [Compound P-0067, imidazo[1,5-a]pyridin-5-yl(2-(trifluoromethyl)phenyl)methanol]
0.0001 to 10 µM | 0.0001 to 10 µM | OC(c1cccc(F)c1)c1cccc2cncn12 (centres unmarked) [Compound P-0068, (3-fluorophenyl)(imidazo[1,5-a]pyridin-5-yl)methanol]
10 to 100 µM | 10 to 100 µM | OC(c1cccc(N2CCOCC2)c1)c1cccc2cncn12 (centres unmarked) [Compound P-0069, imidazo[1,5-a]pyridin-5-yl(3-morpholinophenyl)methanol]
100 to 200 µM | 100 to 200 µM | OC(c1cccc(-n2ccnc2)c1)c1cccc2cncn12 (centres unmarked) [Compound P-0070, (3-(1H-imidazol-1-yl)phenyl)(imidazo[1,5-a]pyridin-5-yl)methanol]
0.0001 to 10 µM | 10 to 100 µM | OC(c1cccc(OCc2ccccc2)c1)c1cccc2cncn12 (centres unmarked) [Compound P-0071]
10 to 100 µM | 10 to 100 µM | CN(C)c1cccc(C(O)c2cccc3cncn23)c1 (centres unmarked) [Compound P-0072, (3-(dimethylamino)phenyl)(imidazo[1,5-a]pyridin-5-yl)methanol]
0.0001 to 10 µM | 10 to 100 µM | OC(c1cccc(N2CCCCC2)c1)c1cccc2cncn12 (centres unmarked) [Compound P-0073, imidazo[1,5-a]pyridin-5-yl(3-(piperidin-1-yl)phenyl)methanol]
0.0001 to 10 µM | 0.0001 to 10 µM | OC(c1cccc2cncn12)C1CCOCC1 (centres unmarked) [Compound P-0075, imidazo[1,5-a]pyridin-5-yl(tetrahydro-2H-pyran-4-yl)methanol]
> 200 µM | 10 to 100 µM | OC(c1ccccc1Cl)c1cccc2cncn12 (centres unmarked) [Compound P-0077, (2-chlorophenyl)(imidazo[1,5-a]pyridin-5-yl)methanol]
0.0001 to 10 µM | 10 to 100 µM | OC(c1cccc(C(F)(F)F)c1)c1cccc2cncn12 (centres unmarked) [Compound P-0078, imidazo[1,5-a]pyridin-5-yl(3-(trifluoromethyl)phenyl)methanol]
0.0001 to 10 µM |  | CC(C)(C1CCN(C(=O)CN2CCS(=O)(=O)CC2)CC1)[C@H](O)c1cc(Cl)cc2cn[nH]c12 [Compound P-0500, (S)-1-(4-(1-(5-chloro-1H-indazol-7-yl)-1-hydroxy-2-methylpropan-2-yl)piperidin-1-yl)-2-(1,1-dioxidothiomorpholino) ethan-1-one]
0.0001 to 10 µM | 0.0001 to 10 µM | O=C(Cc1ccc(Cl)c(F)c1)N1CCC(C(F)(F)[C@H](O)c2cc(Cl)cc3cn[nH]c23)CC1 [Compound P-0571, (R)-1-(4-(2-(5-chloro-1H-indazol-7-yl)-1,1-difluoro-2-hydroxyethyl)piperidin-1-yl)-2-(4-chloro-3-fluorophenyl)ethan-1-one]
0.0001 to 10 µM | 0.0001 to 10 µM | O=C(Cc1ccc(F)c(Cl)c1)N1CCC(C(F)(F)[C@H](O)c2cc(Cl)cc3cn[nH]c23)CC1 [Compound P-0572, (R)-1-(4-(2-(5-chloro-1H-indazol-7-yl)-1,1-difluoro-2-hydroxyethyl)piperidin-1-yl)-2-(3-chloro-4-fluorophenyl)ethan-1-one]
0.0001 to 10 µM | 0.0001 to 10 µM | CC(C)(C1CCN(/C(N)=N/C#N)CC1)C(O)c1cc(Cl)cc2cn[nH]c12 (centres unmarked) [Compound P-0573, (E)-4-(1-(5-chloro-1H-indazol-7-yl)-1-hydroxy-2-methylpropan-2-yl)-N′-cyanopiperidine-1-carboximidamide]
0.0001 to 10 µM | 0.0001 to 10 µM | CCC(=O)N1CCC(C(F)(F)[C@H](O)c2cc(Cl)cc3cn[nH]c23)CC1 [Compound P-0574, (R)-1-(4-(2-(5-chloro-1H-indazol-7-yl)-1,1-difluoro-2-hydroxyethyl)piperidin-1-yl)propan-1-one]
0.0001 to 10 µM | 0.0001 to 10 µM | CNC(=O)N1CCC(C(F)(F)[C@H](O)c2cc(Cl)cc3cn[nH]c23)CC1 [Compound P-0575, (R)-4-(2-(5-chloro-1H-indazol-7-yl)-1,1-difluoro-2-hydroxyethyl)-N-methylpiperidine-1-carboxamide]
0.0001 to 10 µM | 0.0001 to 10 µM | O=C(Cc1ccnc(Cl)c1)N1CCC(C(F)(F)[C@H](O)c2cc(Cl)cc3cn[nH]c23)CC1 [Compound P-0576, (R)-1-(4-(2-(5-chloro-1H-indazol-7-yl)-1,1-difluoro-2-hydroxyethyl)piperidin-1-yl)-2-(2-chloropyridin-4-yl)ethan-1-one]
0.0001 to 10 µM | 0.0001 to 10 µM | CCC(=O)N1CCC(C(F)(F)C(O)c2cc(Cl)cc3[nH]ncc23)CC1 (centres unmarked) [Compound P-0577, 1-(4-(2-(6-chloro-1H-indazol-4-yl)-1,1-difluoro-2-hydroxyethyl)piperidin-1-yl) propan-1-one]
0.0001 to 10 µM | 0.0001 to 10 µM | CNC(=O)N1CCC(C(F)(F)C(O)c2cc(Cl)cc3[nH]ncc23)CC1 (centres unmarked) [Compound P-0578, 4-(2-(6-chloro-1H-indazol-4-yl)-1,1-difluoro-2-hydroxyethyl)-N-methylpiperidine-1-carboxamide]
0.0001 to 10 µM | 0.0001 to 10 µM | CC(C)(C1CCN(C(=O)NCS(C)(=O)=O)CC1)[C@H](O)c1cc(Cl)cc2cn[nH]c12 [Compound P-0579, (S)-4-(1-(5-chloro-1H-indazol-7-yl)-1-hydroxy-2-methylpropan-2-yl)-N-((methylsulfony)methyl)piperidine-1-carboxamide]
0.0001 to 10 µM | 0.0001 to 10 µM | CC(C)(C1CCN(C(=O)NCCF)CC1)[C@H](O)c1cc(Cl)cc2cn[nH]c12 [Compound P-0580, (S)-4-(1-(5-chloro-1H-indazol-7-yl)-1-hydroxy-2-methylpropan-2-yl)-N-(2-fluoroethyl) piperidine-1-carboxamide]
0.0001 to 10 µM | 0.0001 to 10 µM | CC(C)(C1CCN(C(=O)NCC(F)F)CC1)[C@H](O)c1cc(Cl)cc2cn[nH]c12 [Compound P-0581, (S)-4-(1-(5-chloro-1H-indazol-7-yl)-1-hydroxy-2-methylpropan-2-yl)-N-(2,2-difluoroethyl) piperidine-1-carboxamide]
0.0001 to 10 µM | 0.0001 to 10 µM | CC(C)(C1CCN(C(=O)NCC2CCC2)CC1)[C@H](O)c1cc(Cl)cc2cn[nH]c12 [Compound P-0582, (S)-4-(1-(5-chloro-1H-indazol-7-yl)-1-hydroxy-2-methylpropan-2-yl)-N-(cyclobutylmethyl) piperidine-1-carboxamide]
